Results from patent publication US8795632B2, “Disease animal model for chronic pain” (Astellas Pharma Inc., priority 2008, dated 2014).

Columns and labels:
[1] = tested on: Sprague-Dawley rats; assay: Muscle pressure pain threshold value after repeated administration of reserpine; type: in vivo, rat; conditions: for time after reserpine final administration until which muscle pressure pain threshold value was statistically significantly low vs solvent group: reserpine 1 mg/kg s.c. once a day for 3 days
Experimental: Measurement of muscle pressure pain threshold value was carried out in accordance with the method of Schafers et al. (Schafers M. et al., Pain, 104, 579-588, 2003). A pressure stimulus of gradually increasing to 250 g at the maximum was added to the rat right hind leg gastrocnemius muscle. […] The measurement was carried out 3 times at each point of time of the measurement, and the average was used as the measurement value. Measurement of the skin pain sensation threshold value was carried out in accordance with the method of Chaplan et al. (Chaplan et al., J. Neurosci. Methods, 53, 55-63, 1994). This was measured using a series of von Frey filaments having different diameters which may add a constant pressure. […] The von Frey filament was applied using the up and down method. That is, by firstly applying a filament of middle diameter, a filament having one rank smaller diameter was applied when the withdrawal reaction was observed or a filament having one rank larger diameter was applied when the withdrawal reaction was not observed. The skin pain sensation threshold value at each point of time of the measurement was calculated as a hind paw withdrawal reaction threshold value (g) using the calculation formula reported by Chaplan et al. (Chaplan et al., described above). Influences of reserpine upon the muscle pressure pain threshold value and skin pain sensation threshold value were examined by the following protocol. A total of 24 animals for each of male and female rats were used. After measuring muscle pressure pain threshold value and skin pain sensation threshold value before the reserpine treatment (base line), they were divided based on the reserpine administration doses into a solvent (0.5% acetic acid aqueous solution) group, a reserpine 0.1 mg/kg group, a 0.3 mg/kg group and a 1 mg/kg group (the number of animals per one group was 6). The solvent or reserpine was subcutaneously administered on the back of the rats of each group once a day for 3 days. All of the administration volume of the solvent or reserpine was set to 1 ml per 1 kg body weight of each animal. After final administration of the solvent or reserpine, the muscle pressure pain threshold value and skin pain sensation threshold value of each rat were measured 1, 3, 5, 7, 10, 14 and 21 days thereafter.
All of the measured values were expressed as average value±standard error. Statistical significance test of the measured values between the reserpine administration groups and the solvent administration group at each point of time was carried out by a two-way analysis of variance and the Bonferroni method. Probability value (P) of less than 5% was judged as statistically significant (P<0.05 was expressed as * in the graphs).

[2] = tested on: rats; conditions: single intraperitoneal administration of reserpine in rats; Non-patent Reference 13; cited from earlier work
[3] = tested on: Sprague-Dawley rats; assay: Muscle pressure pain threshold value after reserpine single administration; type: in vivo, rat; conditions: reserpine 3 mg/kg single s.c.
Experimental: Male Sprague-Dawley rats (Japan SLC, Hamamatsu, Japan) were used. Measurement of muscle pressure pain threshold value was carried out in the same manner as in Example 1. That is, a pressure stimulus of gradually increasing to 250 g at the maximum was added to the right hind leg gastrocnemius muscle of each rat. […] The measurement was carried out 3 times at each point of time of the measurement, and the average was used as the measurement value.
Influences of the reserpine single administration upon the muscle pressure pain threshold value, skin pain sensation threshold value, cold sensitivity and heat sensitivity were examined in accordance with the following protocol. […] The muscle pressure pain threshold value, skin pain sensation threshold value, cold sensitivity and heat sensitivity before the reserpine treatment (base lines) were measured and then they were divided into a solvent (0.5% acetic acid aqueous solution) group and a reserpine (3 mg/kg) group (the number of animals per group was 6). […] The muscle pressure pain threshold value, skin pain sensation threshold value, cold sensitivity and heat sensitivity of each rat were measured at the points of measurement time of acute phase after administration of the solvent or reserpine (2, 4, 8 and 24 hours) and chronic phase (2, 3, 5, 7, 10, 14 and 21 days).
All of the measured values were expressed as average value±standard error. […]

[4] = tested on: Sprague-Dawley rats; assay: Forced swimming test (immobility time) after repeated administration of reserpine; type: in vivo, rat; conditions: reserpine 1 mg/kg s.c. once a day for 3 days
Experimental: Male Sprague-Dawley rats (7 weeks old, Japan SLC, Hamamatsu, Japan) were used as the animal. The forced swimming test was carried out by modifying the method of Porsolt et al. (1977) in the following manner. A soft wire equipped with a magnet (1 mm in diameter, 3 mm in length) was attached to both forelimbs of each animal, and the animal was allowed to swim in a cylindrical plastic water bath (20 cm in diameter, 45 cm in height) filled with water (24±1° C.) to a depth of 30 cm. In this test, the immobility time of each animal was measured using a forced swimming automatic measuring device (MicroAct Scratching Test version 1.06; Neuroscience, Tokyo, Japan) which detects movement of the forelimbs equipped with the magnet, through a coil around the cylinder.
Influence of reserpine upon the immobility time in the forced swimming test was examined in accordance with the following protocol. […] All of the measured values were expressed as average value±standard error. Statistical difference of the measured values between the reserpine administration groups and the vehicle administration group in each test schedule was carried out by the Student's t-test. Probability value (P) of less than 5% was judged as statistically significant (P<0.05 was expressed as * in the graphs).

COC(=O)[C@H]1[C@H]2C[C@@H]3c4[nH]c5cc(OC)ccc5c4CCN3C[C@H]2C[C@@H](OC(=O)c2cc(OC)c(OC)c(OC)c2)[C@@H]1OC [reserpine]
time after reserpine final administration until which muscle pressure pain threshold value was statistically significantly low vs solvent group ([1]; female rats): 7 days
muscle pressure pain threshold value ([1]; male and female rats, reserpine 0.1, 0.3, 1 mg/kg s.c. once a day for 3 days, two-way analysis of variance vs solvent): significantly reduced
time after reserpine final administration until which muscle pressure pain threshold value was statistically significantly low vs solvent group ([1]; male rats): 10 days
muscle pressure pain threshold value ([1]; reserpine 1 mg/kg group, s.c. once a day for 3 days): markedly reduced
duration of chronic muscle pain and chronic tactile allodynia after administration ([1]; reserpine administered to a mammal (summary statement)): ≥ 1 week
sensitivity to thermal stimulation [2]: causes hypersensitivity to thermal stimulation
time within which hypersensitivity to thermal stimulation disappears [2]: ≤ 24 h
muscle pressure pain threshold value ([3]; after 2, 3, 5, 7 and 10 days): significantly reduced
muscle pressure pain threshold value ([3]; after 2, 4, 8 and 24 hours): significantly increased
immobility time in forced swimming test vs vehicle administration group ([4]; after 3, 5, 7 and 14 days of the final administration (P=0.0007, P=0.004, P<0.0001, P=0.0008)): significant increase
immobility time in forced swimming test vs vehicle administration group ([4]; after 1 day of the final administration (P=0.625, Student's t-test)): Significant increase in the immobility time by the reserpine administration was not found
